Experimental data reported in patent US20160271153A1, “Novel Methods For The Treatment Of Cardiac Arrhythmias” (United States Government as Represented by The Department …, priority 2013, published 2016).
Changes are numbered by the printed parent chain. Entries after “also recorded” stand apart in the source; their conditions may differ.

Columns and labels:
[1] = biological target: T1, WT mouse Cav1 (Mus musculus, UniProt P49817); assay: Biotin-switch assay for Cav1 S-nitrosation in transfected HEK cells, WT Cav1; format: cell-based; conditions: SNAP 20 μM, 10 min
T1 construct: A full-length mouse Cav1 cDNA clone in pCMV-SPORT6 vector; host or cells: HEK cells
T1 sequence (P49817 1-178): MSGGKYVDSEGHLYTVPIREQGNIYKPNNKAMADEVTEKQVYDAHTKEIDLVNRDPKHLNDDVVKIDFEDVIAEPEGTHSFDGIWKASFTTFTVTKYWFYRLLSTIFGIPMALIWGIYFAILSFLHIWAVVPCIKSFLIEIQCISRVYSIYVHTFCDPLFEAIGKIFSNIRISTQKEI
Procedure: (§1) Transfection of HEK cells with designated plasmids was conducted using Lipofectamine 2000 according to manufacturer's protocol.
(§2) S-nitrosated Cav1 was detected in cells (isolated ventricular cardiomyocytes from control and ACES/8 mice or HEK cells transfected with WT Cav1 or Cav1 mutants [C156S, C143S or C133S], with or without NO donor, SNAP [20 μM, 10 min], treatment) using the methods described in Jaffrey et al., Protein S-nitrosylation: a physiological signal for neuronal nitric oxide, Nat Cell Biol. 2001, 3:193-197; and Haendeler et al., Redox regulatory and anti-apoptotic functions of thioredoxin depend on S-nitrosylation at cysteine 69, Nat Cell Biol. 2002, 4:743-749.
Cells were lysed with HENS buffer (25 mM HEPES, pH 7.7, 0.1 mM EDTA, 0.01 mM neocuproine and 1% SDS) and centrifuged at 20,000 g for 15 min. The total cell protein was incubated in 20 mM methylmethanthiosulphate (MMTS) for 20 min at 50° C. and vortexed for 5 s every 2 min. Cellular protein was precipitated with acetone.
(§3) After removing acetone, protein pellet was resuspended in HENS buffer. […] Cav1 was then immunoprecipitated from each sample using monoclonal Cav1 antibody (BD Biosciences, San Jose, Calif.), where S-nitrosated Cav1 was detected by HRP-conjugated streptavidin following gel electrophoresis and Western blotting. The amount of S-nitrosated Cav1 was quantified and normalized to total Cav1 in each sample

[2] = biological target: T2, C133S Cav1 (Mus musculus, UniProt P49817, C133S); assay: Biotin-switch assay for Cav1 S-nitrosation in transfected HEK cells, C133S Cav1; format: cell-based; conditions: SNAP 20 μM, 10 min
T2 construct: A full-length mouse Cav1 cDNA clone in pCMV-SPORT6 vector; expressed in transfected cells; host or cells: HEK cells
T2 sequence (P49817 1-178 C133S): T1 sequence (P49817 1-178) with C133S
Procedure: (§4) A full-length mouse Cav1 cDNA clone in pCMV-SPORT6 vector was acquired from Thermo Scientific (MGC mouse Cav1 cDNA, clone ID 4484857). The cysteine-to-serine Cav1 mutants (C133S, C143S and C156S) were generated from this WT mouse Cav1 clone using the QuickChange II Site-Directed Mutagenesis kit (Agilent Technologies) according to the manufacturer's instructions.
as §1
as §2, with “4:743-749. […]” for “4:743-749.”
as §3, with “The amount of S-nitrosated Cav1 was quantified and normalized to total Cav1 in each sample” left out

[3] = biological target: T3, C156S Cav1 (Mus musculus, UniProt P49817, C156S); assay: Biotin-switch assay for Cav1 S-nitrosation in transfected HEK cells, C156S Cav1; format: cell-based; conditions: SNAP 20 μM, 10 min
T3 construct: A full-length mouse Cav1 cDNA clone in pCMV-SPORT6 vector; expressed in transfected cells; host or cells: HEK cells
T3 sequence (P49817 1-178 C156S): T1 sequence (P49817 1-178) with C156S
Procedure: as §4, §1
as §2, with “4:743-749. […]” for “4:743-749.”
as §3, with “The amount of S-nitrosated Cav1 was quantified and normalized to total Cav1 in each sample” left out

[4] = biological target: T4, C143S Cav1 (Mus musculus, UniProt P49817, C143S); assay: Biotin-switch assay for Cav1 S-nitrosation in transfected HEK cells, C143S Cav1; format: cell-based; conditions: SNAP 20 μM, 10 min
T4 construct: A full-length mouse Cav1 cDNA clone in pCMV-SPORT6 vector; expressed in transfected cells; host or cells: HEK cells
T4 sequence (P49817 1-178 C143S): T1 sequence (P49817 1-178) with C143S
Procedure: as §4, §1
as §2, with “4:743-749. […]” for “4:743-749.”
as §3, with “The amount of S-nitrosated Cav1 was quantified and normalized to total Cav1 in each sample” left out

[5] = tested on: Cav1-cSrc binding; assay: Co-immunoprecipitation in HEK cells co-transfected with mouse cSrc and Cav1; format: cell-based; conditions: 10 min
Procedure: (§5) Immunoprecipitation (IP) of Cav1 was conducted using a magnetic IP kit from Thermo Scientific (Waltham, Mass.). Protein lysates from total LV or isolated LV myocytes (with 1000 μg total protein) from control and ACES/8 mice were incubated with 10 μg of mouse anti-Cav1 monoclonal antibodies overnight at 4° C.
(§6) The immune complex was bound to protein A/G magnetic beads and collected with a magnetic stand. Proteins co-immunoprecipitated with Cav1 were eluted and subjected to gel electrophoresis and Western blotting using the antibodies described above where appropriate. The amount of proteins co-immunoprecipitated with Cav1 was normalized to total Cav1 co-immunoprecipitated in each sample. Similar methods were used to analyze the proteins that co-immunoprecipitated with Cav3 and cSrc using antibodies against Cav3 (mouse monoclonal, BD Biosciences, San Jose, Calif.) or cSrc (rabbit monoclonal, Cell Signaling Technology, Danvers, Mass.).
as §1
To test if increased Cav1 SNO could result in Cav1-cSrc dissociation, human embryonic kidney (HEK) cells transfected with mouse Cav1 and cSrc were treated with 20 μM nitric oxide (NO) donor S-nitroso-N-acetyl-DL-penicillamine (SNAP) or vehicle for 10 min.

[6] = tested on: Cx43; assay: Western blot of LV protein lysates, Cx43; format: in vivo, mouse
Procedure: (§7) For Western blots, total protein lysates were prepared from the LV of 6 week-old WT control, ACE8/8 with and without 2 week treatment of mitochondria-targeted antioxidant (2-(2,2,6,6-Tetra-methylpiperidin-1-oxyl-4-ylamino)-2-oxoethyl)-triphenylphosphonium chloride (MitoTEMPO, see below), as well as from adult (2-4 month) Cav1−/− mice with and without 4 weeks treatment of cSrc inhibitor 1-(1,1-dimethylethyl)-[…]-1H-pyrazolo[3,4-d]pyrimidin-4-amine (PP1, see below).
(§8) In some cases, protein lysates were prepared from the LV cardiomyocytes isolated from ACE8/8 animals using described methods. 13 Total protein lysates were fractionated on 8-15% SDS-PAGE and transferred to PVDF membranes, incubated in 5% skim milk in PBS containing 0.1% Tween 20 (blocking buffer) for 1 h at room temperature, followed by overnight incubation at 4° C. with primary antibodies (rabbit monoclonal anti-cSrc, p-cSrc at Tyr416, Cx43, C-terminal Src kinase [CSK] and Tyr14 p-Cav1 antibodies from Cell Signaling, mouse monoclonal anti-Cav1 and Cav3 antibodies from BD Biosciences, rabbit monoclonal anti-eNOS, p-eNOS and nNOS antibodies from Santa Cruz).
(§9) For a loading control, the membranes were blotted with primary antibodies against glyceraldehydes-3-phosphate dehydrogenase (GAPDH) (Santa Cruz Biotech, Santa Cruz, Calif.). After washing, the membranes were incubated for 1 h at room temperature with alkaline phosphatase-conjugated secondary antibody diluted in blocking buffer, and bound antibodies were detected using a chemiluminescent alkaline phosphate substrate. Protein band intensities were quantified by densitometry (Quantity One Basic, Bio-Rad Laboratory, Hercules, Calif.) and the band densities of each protein in individual samples were normalized to that of GAPDH in the same sample.

[7] = tested on: p-cSrc at Tyr416; assay: Western blot of LV protein lysates, p-cSrc; format: in vivo, mouse
Procedure: as §7, §8, §9

[8] = tested on: ACE8/8 mice; conditions: cited from earlier work
[9] = tested on: Cav1-cSrc binding; assay: Co-immunoprecipitation with Cav1 in ACE8/8 LV, cSrc; format: in vivo, mouse; conditions: ACE8/8 mice, MitoTEMPO 0.7 mg/kg/day i.p. for 2 weeks, n=6
Procedure: as §5, §6

[10] = tested on: Cav1-eNOS interaction; assay: Co-immunoprecipitation with Cav1 in ACE8/8 LV, eNOS; format: in vivo, mouse; conditions: ACE8/8 mice, MitoTEMPO 0.7 mg/kg/day i.p. for 2 weeks, n=6
Procedure: as §5, §6

[11] = tested on: Cav1−/− mice; assay: Programmed ventricular stimulation, ventricular arrhythmia inducibility; format: in vivo, mouse; conditions: 4 weeks of PP1, n=6, untreated Cav1−/− 75% inducible
Procedure: Surface electrocardiograms (ECG) were recorded and ventricular arrhythmia inducibility was determined in WT and Cav1^−/− with and without 4 weeks of PP1 treatment (n=4-6 in each group) using described methods under general anesthesia with isofurane as described in Berul et al., In vivo cardiac electrophysiology studies in the mouse, Circulation 1996, 94:2641-2648.
Surface electrocardiograms (ECG) were monitored and recorded with needle electrodes connected to a dual bioamplifier (PowerLab 26T, AD Instruments, Dunedin, New Zealand) as described in Yang et al., Exercise training and PI3Kα-induced electrical remodeling is independent of cellular hypertrophy and Akt signaling, J Mol Cell Cardiol. 2012, 53:532-541.
Programmed ventricular stimulation was performed with a RV epicardial electrode connected to STG1008 stimulator (Multichannel systems, Reutlingen, Germany), where eight consecutive beats were paced at 60 ms basic cycle length, followed by triple extrastimuli with incrementally deceasing cycle lengths between 20-55 ms, and inducible ventricular tachycardia was defined as >3 consecutive ventricular beats. See, Bevilacqua et al., A targeted disruption in connexin40 leads to distinct atrioventricular conduction defects, J Interv Card Electrophysiol. 2000, 4:459-467.

[12] = tested on: Cav1−/− mice; assay: LV epicardial conduction velocity measurement (72-electrode Flex-MEA); format: in vivo, mouse
Procedure: LV conduction velocity was measured in anesthetized WT (n=6) and Cav1−/− (with and without 4 week PP1 treatment, n=6 in each group) mice using a flexible multielectrode array (Flex-MEA, 72 electrodes) system (Multichannel systems, Reutlingen, Germany) according to manufacturer's instructions.
Mid-anterior LV epicardial electrical propagation was recorded under right-ventricular pacing (750 bpm); the color mapping of LV conduction propagation, as well as the calculation of LV conduction velocity, were carried out using Cardio 2D software (Multichannel systems, Reutlingen, Germany)

[13] = ACE8/8 mice, MitoTEMPO 0.7 mg/kg/day i.p. for 2 weeks
[14] = ACE8/8 mice, MitoTEMPO 0.7 mg/kg/day i.p. for 2 weeks, n=6
[15] = Cav1−/− mice, PP1 1.5 mg/kg/dose i.p. 3 times per week for 4 weeks, n=6, 1.5 mg/kg

CC(=O)NC(C(=O)O)C(C)(C)SN=O (racemic) [SNAP, S-nitroso-N-acetyl-DL-penicillamine]
Cav1 SNO (S-nitrosation), WT Cav1 [1]: significantly increased | Cav1 SNO (S-nitrosation), C133S Cav1 [2]: significantly increased | Cav1 SNO (S-nitrosation), C156S Cav1 [3]: not | Cav1 SNO (S-nitrosation), C143S Cav1 [4]: significantly increased | interaction between cSrc and Cav1 (in words) ([5]; HEK cells co-transfected with mouse cSrc and Cav1, SNAP 20 μM, n=4): reduced | decrease of Cav1-cSrc binding compared to control ([5]; HEK cells transfected with mouse Cav1 and cSrc, SNAP 20 μM): 58%

CC1(C)CC(NC(=O)C[P+](c2ccccc2)(c2ccccc2)c2ccccc2)CC(C)(C)N1[O] [MitoTEMPO, (2-(2,2,6,6-Tetra-methylpiperidin-1-oxyl-4-ylamino)-2-oxoethyl)-triphenylphosphonium chloride]
increase of Cx43 expression compared to untreated ACE8/8 animals [6, 13]: 1.9 fold | Cx43 downregulation in ACE8/8 LV (in words) [6, 14]: significantly attenuated | reduction of cardiac cSrc phosphorylation compared to untreated ACE8/8 animals [7, 13]: 63% | cSrc activation/phosphorylation in ACE8/8 LV (in words) [7, 14]: significantly attenuated | elevated mitoROS in ACE8/8 hearts ([8]; MitoTEMPO 0.7 mg/kg/day i.p. for 2 weeks, to levels similar to WT controls): normalizes | Cx43 expression in ACE8/8 mice ([8]; from Sovari et al. 2013): restores | gap junction conduction in ACE8/8 mice ([8]; from Sovari et al. 2013): normalizes | ventricular arrhythmias and sudden cardiac death in ACE8/8 mice ([8]; from Sovari et al. 2013): ameliorates | Cav1-cSrc binding in ACE8/8 LV (in words) [9]: reversed; also recorded: restored | Cav1-eNOS interaction in ACE8/8 LV (in words) [10]: reversed; also recorded: significantly reduced

Cc1ccc(-c2nn(C(C)(C)C)c3ncnc(N)c23)cc1 [PP1, 1-(1,1-dimethylethyl)-1-(4-methylphenyl)-1H-pyrazolo[3,4-d]pyrimidin-4-amine]
inducible for ventricular arrhythmias / VT with programmed stimulation [11]: 0% | LV Cx43 expression / Cx43 downregulation (in words) [6, 15]: normalized; also recorded: prevented | LV p-cSrc expression / cSrc phosphorylation (in words) [7, 15]: normalized; also recorded: prevented | LV conduction velocity in Cav1−/− LV (in words) ([12]; 4 weeks of PP1 treatment): normalized | LV conduction velocity ([12]; PP1 1.5 mg/kg/dose i.p. 3 times per week for 4 weeks, n=6, untreated Cav1−/− 0.35±0.03, WT 0.50±0.09): 0.43±0.01 mm/ms
